The source of these data is patent US20260306463A1, “SIK INHIBITORS TO TREAT CHRONIC KIDNEY DISEASE” (The General Hospital Corporation, priority 2023, published 2026).

Assay [1] has as its system intact proximal tubular epithelial genes. The assay is described as follows: whole kidney RNA RT-qPCR of proximal tubule marker genes, adenine CKD mice. The class given is in vivo, mouse. The protocol:
FIGS. 1A-1E. […] (A) Study design: Female CD1 mice (n=8/group) were treated with control or 0.2% adenine diet starting at 6 weeks of age along with vehicle or SK-124 (40 mg/kg) treatment by oral gavage once daily. Bottom: body weight of mice in the indicated treatment groups. […] (B, C) After 6 weeks of treatment, the indicated analytes were measured in fasting serum or urine. […] (D) H+E-stained kidney sections were assessed on a blinded basis by a pathologist for tubulointerstitial damage. (E) Whole kidney RNA from the indicated groups was analyzed by RT-qPCR for the indicated proximal tubule marker gene. For all panels in all figures, 1-way ANOVA was performed with Dunnett's posthoc analysis to analyze differences between treatment groups, p values less than 0.05 are shown in graph.
7-week-old female CD1 mice were obtained from Charles River Laboratories (Wilmington, MA) and were fed on 0.2% adenine containing diet (TD.130900; 0.2% Adenine, 0.9% Phosphate, 0.5% Calcium; Envigo) or control diet (TD. 96348) for 6 or 8 weeks to induce chronic kidney disease (CKD). Mice were oral gavaged with 40 mg/kg SK-124, or intraperitonially injected with 80 μg/kg PTH, or treated with vehicle 5 days a week for the duration of the special diet.
For studies with Ubiquitin-Cre^ERt2; Sik2^ff; Sik3^ff mice (JAX #007001 for Ubiquitin-Cre^ERt2: RRID:MGL:5905012 for Sik2 foxed mice; and Sik3^tmla(EUCOMM)Hmgu mice (RRID:MGI:5085429) bred to PGK1 FLPo mice (JAX #011065) in order to generate Sik3 foxed mice), tamoxifen was injected (1 mg, IP, Q48 hours, 3 injections total) in all animals including Cre-negative control littermates housed in cages with Pure-o′Cel bedding at 5 weeks of age. Mice were then fed on 0.2% adenine diet from 6 weeks to 9 weeks of age. Mice were fasted for 6 hours and treated with SK-124 and PTH 4 hours and 2 hours before the sacrifice. Blood and spot urine samples were collected by cheek pouch bleeding and by pipetting urine collected on hydrophobic sand (Labsand; Braintree, MA). Kidneys were immediately snap-frozen in liquid nitrogen for TRIzol (Life Technologies)-Chloroform (Fischer Scientific) based RNA isolation or protein isolation, or fixed in 10% formalin at 4C for 24 hrs for histology. All serum and urine measurements were performed using commercial bioassay detection reagents listed in Table 1, following the manufacturers' instructions. Urine protein levels were measured by Bradford assay and normalized to urine creatinine.
cDNA was prepared using Primescript RT kit (Takara Inc), with 750 ng RNA per reaction. […] Hmbs was used as a control housekeeping gene for mouse samples, and B-Actin was used for organoids, relative expression was calculated (2^-deltaCT method) and compared to the mean of control group if necessary. […]
Background: Real-time PCR tracks product formation cycle by cycle.

The subject of assay [2] is mouse CKD kidneys and human kidney organoids. The assay is described as follows: overlap of injury-regulated genes rescued by SK-124 in mouse adenine diet and human cisplatin organoid studies. The note with it: Venn overlap, both CKD models. The procedure:
FIGS. 13A-13E. Transcriptomic effects of SK-124 in cisplatin-induced human kidney organoid model. RNA-seq was performed on kidney organoid RNA samples (n=4/group) from FIG. 8. Volcano plot show gene regulated (>2-fold change, p(adj)<0.05) by cisplatin (versus vehicle, A) or within cisplatin-treated organoids by SK-124 (versus DMSO control, B). In Volcano plot, representative fibrosis/injury markers (Col8a1, Fni, Serpinel) and proximal tubule integrity (Lrp2 and Hnf4a) are shown. Scatterplot (C) and heatmap (D) showing integration of individual RNA-seq comparisons.
Isolated RNA samples from the mouse adenine diet study and human kidney organoid experiment were submitted to Novogene and bulk-RNA sequencing on NovaSeq X Plus Ilumina Novoseq Platform. Sequencing reads were mapped to the mouse reference genome (mm10/GRCm38) or human reference genome (GRCh38/hg38) using Salmon and differential gene expression analysis was performed using DESeq2.

Setting [3] is: whole kidney RNA, RT-qPCR, 6 weeks adenine diet.

As for `CCc1nnc(-c2c(OC)cc(-c3cnc4cc(-c5cnn(C)c5)ccn34)cc2OC)o1` [SK-124, 2-[2,6-Dimethoxy-4-[7-(1-methylpyrazol-4-yl)imidazo[1,2-a]pyridin-3-yl]phenyl]-5-ethyl-1,3,4-oxadiazole], the epithelial cell integrity result in assay [1] (adenine-induced CKD) is given as “preserves epithelial cell integrity”. In assay [1] (setting [3]), the Atpla1 expression entry was “restored expression”, the Lrp2 expression result is on record as “restored expression” and the Slc34a1 expression entry is “restored expression”. In assay [2], the “conserved genes induced with injury and reduced by SK-124” value worked out at 419 genes; the “conserved genes suppressed by injury and restored by SK-124” value came out at 373 genes.
